SMILES strings stand for the structures. Like-named read-outs stand apart in the source and are kept apart here.

One test concerns the target Hmdm2 (Homo sapiens, UniProt Q00987). As to the kind of experiment: Selectivity (% A in 1 μM), ubiquitin ligase activity of Hmdm2. It counts as biochemical. The settings on record: read-out: Selectivity (% A* in 1 μM) Hmdm2.
Another test has as its target T1, POSH (Homo sapiens, UniProt Q7Z6J0).
T1 construct: GST-POSH lot NB81/p.118 3.6 mg/ml; fused on or other part: GST tag, used for detection with anti-GST XL665
T1 sequence (Q7Z6J0 1-269 limits assumed): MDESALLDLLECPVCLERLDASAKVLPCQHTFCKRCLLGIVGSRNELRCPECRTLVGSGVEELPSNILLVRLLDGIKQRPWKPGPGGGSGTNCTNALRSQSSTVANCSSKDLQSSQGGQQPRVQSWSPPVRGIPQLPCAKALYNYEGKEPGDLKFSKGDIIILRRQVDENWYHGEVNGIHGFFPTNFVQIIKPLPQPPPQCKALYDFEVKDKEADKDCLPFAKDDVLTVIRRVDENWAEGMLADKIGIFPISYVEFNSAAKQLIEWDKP
As to the kind of experiment: IC50 assay procedure: GST-POSH auto-ubiquitination, homogeneous time-resolved fluorescence (Ub-cryptate / anti-GST XL665). The note with it: ubiquitin ligase activity of POSH; GST-POSH 33 nM, 30 min preincubation. It counts as biochemical. The source says: In certain preferred embodiments, agents that inhibit (or promote) the ubiquitin ligase activity of a ubiquitin ligase, such as POSH, may be identified using a homogenous time resolved fluorescence assay. Such an assay may employ a GST fused to the RING subunit of a ubiquitin ligase (e.g. POSH). Two flurophore-conjugated detection reagents are also used: anti-GSTXL665 and europium cryptate labeled ubiqutin. The ubiqutination of the ubiquitin ligase by ubiqutin cryptate and binding of the anti-GST tagged XL665 brings the fluorophores into close proximity allowing FRET reaction to occur. Accordingly, FRET serves as a measurement of ubiquitination of the ubiquitin ligase. An enzymatic system may be set up to provide activated ubiquitin, e.g., by providing ubiquitin, an E1 and an E2. Compounds that will not allow the FRET reaction are considered to be inhibitors.
Step 3: establish IC 50 value measurements.
Experimental Protocols: 1. HTS Screening Assay Procedure • Microplates 10109D to 10114D compounds at 1 mM. • (Controls in column 1). • All compounds were perchase from ChemBridge corporation: ChemBridge corporation 16981 Via Tazon, Suite G San Diego, Calif. 92127 a. Microplates Labeling • Put labels to 6 PS U-bottom clear microplate. • Put labels to 18 black microplates (triplicats). b. Microplates Preparation • Put 100 μl GST-POSH at 33 nM in wells of the clear PS U-bottom microplates (exept wells A1-D1). • Negative control: place 100 μl dH2O in wells A1-D1. • (Positive control: place 100 μl GST-POSH at 33 nM in wells E1-H1). • Put 8 μl enzymes solution ×4 to black microplates (column 1 to 11). c. Incubation of E3 with Compounds • Transfer 5 μl of compounds (at 1 mM) to the microplates containing 100 μl GST-POSH. • Add 5 μl of DMSO to controls column 1. • Incubation 30 minutes at RT. d. Enzymatic (Ubiquitination) and Final Steps • Distribution of (triplicate) 3×23 μl incubated compounds into 3 black microplates containing enzymatic solution (on splitting apparatus). • Incubation 30 minutes at 37° C. • Addition of 8 μl EDTA 0.5 M. • Incubation 15 (at least) minutes at RT. • Addition of 30 μl GST XL 665 in reconstitution buffer. • Incubation 45 (at least) minutes at RT. • Reading fluorescence. • Record results in computer. • Put sealing foil back on original and diluted microplates and keep at −70° C. • Always the plates must be closed with lids during each step. 2. […] Microplates Labeling • Put labels to 4 clear PP clear microplate (18.2 μM, 9.1 uM, 1.82 uM, 910 nM,). • Put labels to 5 clear PS U-bottom clear microplate 4.44 μM, 909, 444, 91 and 44 nM) • Put labels to 15 black microplates (triplicates). f. Original Microplate Dilutions • Put DMSO 40 μl to (18.2 μM, 1.82 uM plates) and 20 ul to (9.1 uM, 910 nM plates. • Mix by pipetation the original microplate (3× up and down 45 μl). • Transfer 10 μl of compounds from the original microplate (at 91 μM) to the next microplate (=18.2 μM) on splitting apparatus. • Mix by pipetation the 18.2 uM microplate (3× up and down 45 μl). • Transfer 20 μl of compounds from the 18.2 uM microplate to the next microplate (=9.1 μM) on splitting apparatus. • Mix by pipetation the 9.1 uM microplate (3× up and down 45 μl). • Transfer 10 μl of compounds from the 9.1 uM microplate to the next microplate (=1.82 μM) on splitting apparatus. • Mix by pipetation the 1.82 uM microplate (3× up and down 45 μl). • Transfer 20 μl of compounds from the 1.82 uM microplate to the next microplate (=910 nM) on splitting apparatus • Mix by pipetation. g. Microplates Preparation • Put 123 μl GST-POSH at 33 nM in wells of the 5 clear PS U-bottom clear microplates. • Positive control: place 123 μl GST-POSH at 33 nM in well A12-h12 13 μl DMSO. • Negative control: place 123 μl dH2O in well B1 and 13 μl DMSO. • Put 8 μl enzymes solution ×4 to 15 black microplates. • Controls: put 8 μl enzymes solution ×4 to wells A1 to F1. h. […]

Where [1] appears, read: % activity at 1 μM compound, control is related to 100% activity, HTS protocol.

Chain of Hmdm2 (Q00987 whole entry): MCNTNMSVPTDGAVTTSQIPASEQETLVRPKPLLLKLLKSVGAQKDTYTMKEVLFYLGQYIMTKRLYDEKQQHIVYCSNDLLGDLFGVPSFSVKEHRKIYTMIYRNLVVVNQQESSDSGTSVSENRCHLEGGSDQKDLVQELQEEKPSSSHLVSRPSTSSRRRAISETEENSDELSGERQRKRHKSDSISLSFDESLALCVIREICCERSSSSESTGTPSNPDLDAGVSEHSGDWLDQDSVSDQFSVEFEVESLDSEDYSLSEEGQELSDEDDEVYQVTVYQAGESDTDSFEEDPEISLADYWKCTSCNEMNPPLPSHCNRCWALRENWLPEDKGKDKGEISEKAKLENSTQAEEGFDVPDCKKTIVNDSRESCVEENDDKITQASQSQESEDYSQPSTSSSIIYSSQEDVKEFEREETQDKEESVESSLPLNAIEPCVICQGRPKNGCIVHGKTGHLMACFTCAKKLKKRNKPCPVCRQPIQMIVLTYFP

As for `O=c1/c(=C/c2cccc([N+](=O)[O-])c2O)sc2nc3ccccc3n12` [Compound 51], on Hmdm2 (setting [1]), the remaining activity at 1 µM turned out to be 80%. The compound further returned a 50% inhibitory concentration (IC50) against POSH of 700 nM.
With `O=C1/C(=C\c2cccc([N+](=O)[O-])c2)Sc2ccccc21` [Compound 52], on Hmdm2 (setting [1]), the remaining activity at 1 µM came to 107%. At POSH, inhibition was half-maximal at 1300 nM (IC50).
Turning to `Cc1ccc2nsnc2c1/N=C/c1c(O)ccc2ccccc12` [Compound 53], the remaining activity at 1 µM at Hmdm2 stood at 125%. At POSH, this compound yielded an IC50 of 500 nM.
For `Cc1ccc(/N=C/c2cc(Br)cc(Br)c2O)c(C)c1` [Compound 54] the same measures were 124% and 500 nM.
For `COc1ccc(/C=N/c2ccc(Nc3ccccc3)cc2)c2ccccc12` [Compound 55] the same measures were 58% and 500 nM.
Consider `Cc1ccc(/N=C/c2cccc(O)c2O)cc1C` [Compound 56], for which the remaining activity at 1 µM at Hmdm2 came to 73%. Further, at POSH, the half-inhibitory concentration (IC50) came to 300 nM.
For `OCc1cccc(/N=C/c2cccc(O)c2O)c1` [Compound 57] the same measures were 80% and 300 nM.
In the case of `Oc1c(Br)cc(Cl)cc1/C=N/c1ccccc1Br` [Compound 58], the remaining activity at 1 µM at Hmdm2 (setting [1]) amounted to 102%. For the same compound, it took 800 nM to reach half-maximal inhibition against POSH (IC50).
As for `CC(C)(C)c1ccc(O)c(/N=C/C=C/c2cccc([N+](=O)[O-])c2)c1` [Compound 59], on Hmdm2, the remaining activity at 1 µM amounted to 112%. Besides, the IC50 on POSH was found to be 500 nM.
As for `O=[N+]([O-])c1ccc(-c2ccc(/N=C/c3c(O)ccc4ccccc34)cc2)cc1` [Compound 60], at Hmdm2 (setting [1]), the remaining activity at 1 µM is 90%. This compound also came in with an IC50 against POSH of 1000 nM.
For `Oc1c(Br)cc(Br)cc1/C=N/c1ccc(Br)cn1` [Compound 61] the same measures were 131% and 700 nM.
In the case of `Oc1c(Br)cc(Br)cc1/C=N/c1nc2ccccc2s1` [Compound 62], at Hmdm2 (setting [1]), the remaining activity at 1 µM came out at 120%. At POSH, this compound came in with an IC50 of 700 nM.
For `Oc1c(Cl)cc(Cl)cc1/C=N/c1ccc(-c2nc3ccccc3[nH]2)cc1` [Compound 63] the same measures were 102% and 600 nM.
For `Oc1c(Br)cc(Cl)cc1/C=N/c1ccccn1` [Compound 64] the same measures were 115% and 900 nM.
For `Cc1cc(C)c(O)c(/N=C/c2c(O)ccc3ccccc23)c1` [Compound 65], the remaining activity at 1 µM at Hmdm2 (setting [1]) was found to be 98%. The compound further displayed a half-maximal inhibitory concentration (IC50) against POSH of 1000 nM.
On the same counts, the results for `Oc1ccc2ccccc2c1/C=N/c1ncc(Br)cc1Br` [Compound 66] are 120% and 900 nM.
Regarding `O=[N+]([O-])c1ccc2c(c1)Cc1cc(/N=C/c3ccc(Br)cc3)ccc1-2` [Compound 67], the remaining activity at 1 µM at Hmdm2 (setting [1]) is 104%. The compound further returned an IC50 at POSH of 1000 nM.
On the same counts, the results for `CCOC(=O)c1c(/N=C/c2cc(Br)ccc2O)sc2c1CCCC2` [Compound 68] are 110% and 1000 nM.
Consider `Cc1cc([N+](=O)[O-])ccc1/N=C/c1ccc[nH]1` [Compound 70], for which the remaining activity at 1 µM at Hmdm2 was 125%. This compound also came in with an IC50 against POSH of 600 nM.
Take `Oc1ccc(/N=C/c2cccs2)cc1-c1nc2ccccc2s1` [Compound 71]: at Hmdm2 (setting [1]), the remaining activity at 1 µM was found to be 78%. This compound showed an IC50 against POSH of 800 nM.
On the same counts, the results for `Cc1ccc2nc(-c3ccc(/N=C/c4ccc([N+](=O)[O-])s4)cc3)sc2c1` [Compound 72] are 124% and 800 nM.
For `Cc1ccc(/C=N/c2ccc(C(N)=O)cc2)o1` [Compound 73] the same measures were 96% and 1500 nM.
On the same counts, the results for `Cc1ccc(/C=N/c2ccc(Cl)cc2)o1` [Compound 74] are 107% and 1000 nM.
For `Cc1c(C(=O)/C=C/c2ccccc2)c2cc(O)ccc2n1C` [Compound 75], on Hmdm2, the remaining activity at 1 µM came to 113%. In addition, on POSH, the IC50 worked out at 400 nM.
On the same counts, the results for `Cc1c(C(=O)/C=C/c2cccs2)c2cc(O)ccc2n1C` [Compound 76] are 110% and 400 nM.
As to `CC(=O)Nc1ccc(-c2cc3ccccn3c2)cc1` [Compound 78], the remaining activity at 1 µM on Hmdm2 (setting [1]) came to 93%. The IC50 on POSH was found to be 900 nM.
For `O=C(C(Cl)Cl)N1CCN(c2ccc([N+](=O)[O-])cc2)CC1` [Compound 79] the same measures were 94% and 900 nM.
Turning to `O=[N+]([O-])c1ccc(CN2CCN(c3cccc(Cl)c3)CC2)o1` [Compound 80], the remaining activity at 1 µM on Hmdm2 came out at 95%. This compound had an IC50 against POSH of 500 nM.
On the same counts, the results for `CCCCOc1ccc(NC(=S)N2CCn3c4c(c(=O)c5cc(C)ccc53)CCC42)cc1` (stereo not drawn) [Compound 81] are 73% and 100 nM.
In the case of `O=[N+]([O-])c1ccc(Cl)cc1CN1CCN(CCO)CC1` [Compound 82], on Hmdm2 (setting [1]), the remaining activity at 1 µM is 120%. Further, at POSH, half-maximal inhibition (IC50) required 300 nM.
With `O=c1nc(-c2ccc(Br)cc2)cc(-c2ccc([N+](=O)[O-])cc2)[nH]1` [Compound 84], at Hmdm2, the remaining activity at 1 µM turned out to be 102%. At POSH, the midpoint of inhibition, the IC50, lay at 300 nM.
`Cc1cc(I)ccc1NCn1nnc2ccccc21` [Compound 105]: the remaining activity at 1 µM at Hmdm2 (setting [1]) came to 102%. In addition, the IC50 at POSH was determined as 800 nM.
For `COc1ccc(CNc2cccc(N(C)C)c2)cc1` [Compound 106] the same measures were 80% and 900 nM.
Take `COc1ccc(CC(C)NCc2ccccc2Cl)cc1` (stereo not drawn) [Compound 107]: at Hmdm2 (setting [1]), the remaining activity at 1 µM turned out to be 113%. The IC50 against POSH came out at 1000 nM.
In the case of `O=C1NC(=O)/C(=C\c2ccc(-c3ccc(F)cc3)o2)S1` [Compound 108], the remaining activity at 1 µM at Hmdm2 (setting [1]) was 108%. For the same compound, the IC50 against POSH stood at 900 nM.
Regarding `C=CCN1C(=O)/C(=C/c2c3ccccc3cc3ccccc23)SC1=S` [Compound 109], the remaining activity at 1 µM at Hmdm2 is 106%. The IC50 at POSH was found to be 500 nM.
`CN(C)c1ccc(/C=C2\SC(=S)N(C3CCS(=O)(=O)C3)C2=O)cc1` (stereo not drawn) [Compound 110]: the remaining activity at 1 µM on Hmdm2 was found to be 51%. For the same compound, the midpoint of inhibition at POSH, the IC50, lay at 600 nM.
With `Cc1cc(/N=C/c2c(O)ccc3ccccc23)no1` [Compound 111], on Hmdm2 (setting [1]), the remaining activity at 1 µM is 72%. Also, the midpoint of inhibition against POSH, the IC50, lay at 1000 nM.
`Oc1c(Br)cc(Br)cc1/C=N/c1cccc2nsnc12` [Compound 112]: at Hmdm2 (setting [1]), the remaining activity at 1 µM was 113%. On POSH, the midpoint of inhibition, the IC50, lay at 700 nM.

In general, IC50 refers to the point on the concentration scale where inhibition reaches its midpoint. A low value points to greater potency in that assay.

The values are drawn from US7659277B2, “Ubiquitin ligase inhibitors and methods related thereto” (Proteologies, Ltd., priority 2003, dated 2010).
